Values of other authors, collected in patent publication US8742076B2, “Nemorubicin metabolite and analog reagents, antibody-drug conjugates and methods” (Genentech, Inc., priority 2008, dated 2014).

Columns and labels:
[1] = comparison with nemorubicin and doxorubicin

SMILES: COc1cccc2c1C(=O)c1c(O)c3c(c(O)c1C2=O)C[C@@](O)(C(=O)CO)C[C@@H]3O[C@H]1C[C@H]2[C@H](O[C@@H]3[C@@H](OC)OCCN32)[C@H](C)O1 [PNU (159682), 3′-deamino-3″,4′-anhydro-[2″(S)-methoxy-3″(R)-oxy-4″-morpholinyl]doxorubicin]
- efficacy in in vivo tumor models (tumor models): effective
- cytotoxicity in vitro compared with nemorubicin and doxorubicin [1]: remarkably more cytotoxic than nemorubicin and doxorubicin
